Test results published in PubChem BioAssay (NCI).
“And” between values parts separate entries of the source, which are not always exact repeats. Equal values may be shown once.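 Exposure lasted 48 hours, with cells grown in 96-well plates and compounds tested at five concentrations. GI50: concentration for 50% inhibition of growth. TGI: total growth inhibition.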

Legend:
Assay in all cases: growth of human tumour cells (NCI), 48 h
HOP-62 NSCLC = system: HOP-62 NSCLC
A498 renal = system: A498 renal
TK-10 renal = system: TK-10 renal
SR leukemia = system: SR leukemia
U251 CNS = system: U251 CNS
BT-549 breast = system: BT-549 breast
ACHN renal = system: ACHN renal
OVCAR-4 ovarian = system: OVCAR-4 ovarian
PC-3 prostate = system: PC-3 prostate
KM12 colon = system: KM12 colon

Compound | GI50 (HOP-62 NSCLC) | TGI (HOP-62 NSCLC) | GI50 (A498 renal) | TGI (A498 renal) | GI50 (TK-10 renal) | TGI (TK-10 renal) | GI50 (SR leukemia) | TGI (SR leukemia) | GI50 (U251 CNS) | TGI (U251 CNS) | GI50 (BT-549 breast) | TGI (BT-549 breast) | GI50 (ACHN renal) | TGI (ACHN renal) | GI50 (OVCAR-4 ovarian) | TGI (OVCAR-4 ovarian) | GI50 (PC-3 prostate) | TGI (PC-3 prostate) | GI50 (KM12 colon) | TGI (KM12 colon)
O=C1NC(N/N=C\C(O)C(O)C(O)C(O)CO)=N/C1=C/c1ccccc1 (centres undefined) | > 100 µM and 19.4 µM | > 100 µM and 36.2 µM | 45.2 µM and 15.8 µM and > 100 µM | > 100 µM and 39.5 µM | > 100 µM and 19 µM | > 100 µM and 48.3 µM | 51 µM and 16.3 µM and 99.4 µM | > 100 µM and 51.2 µM | > 100 µM and 17.5 µM | > 100 µM and 42.8 µM | 80.6 µM and 16.3 µM and > 100 µM | > 100 µM and 38.7 µM | 80.6 µM and 14.7 µM and > 100 µM | > 100 µM and 28.1 µM | 52.7 µM and 14.5 µM and > 100 µM | > 100 µM and 33.8 µM | 47.5 µM and 14.5 µM and > 100 µM | > 100 µM and 28 µM | 41.6 µM and 16.2 µM and > 100 µM | > 100 µM and 36.7 µM
COc1ccccc1/C=C1\COc2ccc(-c3ccccc3)cc2C1=O | 7.6 µM | > 100 µM | 2.53 µM | 6.43 µM | 2.64 µM | 7.91 µM | 1.31 µM | > 100 µM | 2.12 µM | 6.24 µM | 1.55 µM | 4.89 µM | 3.86 µM | 26 µM | 3.74 µM | > 100 µM | 4.28 µM | > 100 µM | 1.93 µM | 5.55 µM
C/C(=C\c1ccn(-c2ccccc2N)n1)[C@@H]1C[C@@H]2O[C@]2(C)CCC[C@H](C)[C@H](O)[C@@H](C)C(=O)C(C)(C)[C@@H](O)CC(=O)O1 | 0.112 µM | > 50 µM | 0.0372 µM | 0.669 µM | 0.143 µM | > 50 µM | 0.0267 µM | > 50 µM | 0.0348 µM | > 33.6 µM | 0.116 µM | > 13.1 µM | 0.283 µM | > 50 µM | 0.392 µM | > 50 µM | 0.0371 µM | > 50 µM | 0.0203 µM | > 50 µM
[2H]C([2H])([2H])NC(=O)c1nnc(NC(=O)C2CC2)cc1Nc1cccc(-c2ncn(C)n2)c1OC | 15.5 µM | > 100 µM | 4.12 µM | > 100 µM | 8.28 µM | > 100 µM | 16.9 µM | > 100 µM | 59.5 µM | > 100 µM | 23.2 µM | > 100 µM | 5.53 µM | > 100 µM | 18.2 µM | > 100 µM | 29.5 µM | > 100 µM | 32.1 µM | > 100 µM
O=C(O)C(Cc1cnc[nH]1)N1C(=O)c2ccccc2C1=O (centres undefined) | – | > 100 µM | – | > 100 µM | – | > 100 µM | – | > 100 µM | – | > 100 µM | – | > 100 µM | – | > 100 µM | – | > 100 µM | – | > 100 µM | – | > 100 µM
C=CC(=O)N1CCC(c2ccc(C(N)=O)c(-c3ccc(Oc4ccccc4)cc3)n2)CC1 | 56.2 µM | > 100 µM | 12.8 µM | 50.1 µM | 19.2 µM | 99.4 µM | 28 µM | > 100 µM | 32.4 µM | > 100 µM | 22.7 µM | 95.4 µM | 25.3 µM | > 100 µM | 21.6 µM | > 100 µM | 29.5 µM | > 100 µM | 39.6 µM | > 100 µM
CCOC(=O)N1C/C(=C\c2ccccc2)C(=O)/C(=C/c2ccccc2)C1 | – | 24.8 µM | – | 34.2 µM | – | 26.4 µM | – | 4.05 µM | – | 7.43 µM | – | 4.54 µM | – | 10.6 µM | – | 13.6 µM | – | 5.16 µM | – | 4.55 µM
CCCCCCCCCCCC1=NC(C)(C)CN1C(C)(C)CO | 2.72 µM | 9.53 µM | 5.76 µM | 20.8 µM | 1.94 µM | 3.61 µM | 3.07 µM | 12.5 µM | 1.9 µM | 4.77 µM | 9.89 µM | 22 µM | 3.01 µM | 10 µM | 4.61 µM | 15.8 µM | 3.11 µM | 12.8 µM | 1.72 µM | 3.14 µM
CN(C)Cc1ccc(-c2cc3onc(-c4ccccc4)c3c(=O)n2C)cc1 | – | 41.3 µM | – | 56.9 µM | – | 53.1 µM | – | 34 µM | – | 64.8 µM | – | > 100 µM | – | > 100 µM | – | > 100 µM | – | > 100 µM | – | 43.8 µM
CN1C(=O)c2ccc3ccccc3c2C1=O | – | > 100 µM | – | > 100 µM | – | > 100 µM | – | > 100 µM | – | > 100 µM | – | > 100 µM | – | > 100 µM | – | > 100 µM | – | > 100 µM | – | > 100 µM
C=C1C(=O)O[C@H]2[C@H]1CC/C(COC(=O)CCCCCC(=O)OC/C1=C/CC[C@@]3(C)O[C@H]3[C@H]3OC(=O)C(=C)[C@@H]3CC1)=C\CC[C@@]1(C)O[C@@H]21 | 2.34 µM | 6.46 µM | 11.4 µM | 27.4 µM | 2.58 µM | 5.7 µM | 0.336 µM | 5.58 µM | 2.64 µM | 9.61 µM | 1.44 µM | 3.02 µM | 1.4 µM | 3.1 µM | 2.92 µM | 15.3 µM | 2.24 µM | 5.96 µM | 2.17 µM | 5.4 µM
O=[N+]([O-])c1cccc(/C=N/NC2=CS(=O)(=O)C=C2)c1 | – | > 100 µM | – | > 100 µM | – | > 100 µM | – | > 100 µM | – | > 100 µM | – | > 100 µM | – | > 100 µM | – | > 100 µM | – | > 100 µM | – | > 100 µM
O=C(CCN1CCCC1)Nc1ccc2c(NCc3ccccc3)c3ccccc3nc2c1 | 0.471 µM | 2.51 µM | 0.406 µM | 1.9 µM | 0.802 µM | 3.5 µM | 0.261 µM | 1.58 µM | 0.395 µM | 1.73 µM | 1.4 µM | 3.04 µM | 0.465 µM | 2.22 µM | 0.381 µM | 1.63 µM | 0.442 µM | 2.03 µM | 0.439 µM | 1.85 µM
COc1ccc([C@H](CC(=O)O)N2CCN(CCCc3ccc4c(n3)NCCC4)C2=O)cn1 | 0.414 µM | > 100 µM | 0.0116 µM | 0.0633 µM | 0.0167 µM | 0.0795 µM | > 100 µM | > 100 µM | 0.934 µM | > 100 µM | 0.153 µM | 0.296 µM | > 52 µM | > 100 µM | > 100 µM | > 100 µM | > 100 µM | > 100 µM | > 100 µM | > 100 µM
C#C[C@]1(O)CC[C@H]2[C@@H]3CC=C4c5sc(Nc6cc(F)ccc6F)nc5CC[C@]4(C)[C@H]3CC[C@@]21C | 1.77 µM | 5.7 µM | 1.37 µM | 2.76 µM | 2.58 µM | 5.37 µM | 0.568 µM | > 100 µM | 0.813 µM | 2.43 µM | 0.661 µM | 2.43 µM | 1.44 µM | 2.9 µM | 3.25 µM | 11.4 µM | 1.34 µM | 10.3 µM | 1.97 µM | 4.34 µM
CCCCC(SC(=S)N1CCCC1)C(=O)Nc1nc(CC(=O)OCC)cs1 (centres undefined) | > 100 µM | > 100 µM | 64.6 µM | > 100 µM | > 100 µM | > 100 µM | 4.83 µM | > 100 µM | 53.8 µM | > 100 µM | 59.7 µM | > 100 µM | 59.3 µM | > 100 µM | 43.4 µM | > 100 µM | 0.985 µM | > 100 µM | 45.3 µM | > 100 µM
COc1ccc(C(=O)Cn2c(C(=O)c3ccccc3)nc3ccccc32)cc1 | 6.57 µM | > 100 µM | 2.9 µM | > 100 µM | 11 µM | > 100 µM | 0.763 µM | – | 3.62 µM | > 100 µM | 5.9 µM | > 100 µM | 6.23 µM | > 100 µM | 9.9 µM | > 100 µM | 4.56 µM | > 100 µM | 1.64 µM | > 100 µM
C[C@H]1[C@H](C)N1CC(O)Cn1ccnc1[N+](=O)[O-] (some centres undefined) | – | > 100 µM | – | > 100 µM | – | > 100 µM | – | > 100 µM | – | > 100 µM | – | > 100 µM | – | > 100 µM | – | > 100 µM | – | > 100 µM | – | > 100 µM
O=C1CCc2c(sc3[nH]c(=S)n(-c4cc(C(F)(F)F)cc(C(F)(F)F)c4)c(=O)c23)C1 | 0.553 µM | 11.8 µM | 2.15 µM | 7.44 µM | 0.874 µM | > 44.1 µM | 0.516 µM | > 100 µM | 0.364 µM | 1.97 µM | 0.325 µM | 1.99 µM | 0.344 µM | 1.31 µM | 0.359 µM | 1.72 µM | 0.307 µM | 2.35 µM | 0.344 µM | 1.36 µM
CC1=CC2C(C(O)CC3(C)C2CC(C)C32OCOC23COCO3)C2(C)C/C(=C/O)C(=O)C=C12 (centres undefined) | 1.99 µM | 3.52 µM | 2.83 µM | 14.8 µM | 1.91 µM | 3.59 µM | 2.11 µM | 4.45 µM | 1.66 µM | 3.27 µM | 1.62 µM | 3.17 µM | 1.85 µM | 3.45 µM | 1.74 µM | 3.83 µM | 1.71 µM | 4.4 µM | 2.39 µM | 4.77 µM
